Laboratory results as given in patent US10212936B2, “Molecules having pesticidal utility, and intermediates, compositions, and processes, related thereto” (priority 2014, dated 2019).

Tests used:
Format in all cases: in vivo
[1] = tested on: Yellow Fever Mosquito (Aedes aegypti, AEDSAE); assay: Bioassay on Yellow Fever Mosquito (YFM) larvae, 96-well plate; settings: about 1 day-old larvae, 4000 ppm DMSO master plate diluted, graded after 3 days
Method in brief: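 Compounds from 4000 ppm DMSO master stocks, diluted in 90:10 water:acetone, dispensed into wells and infested with about 1-day-old Aedes aegypti larvae in liver-powder water. Six replicate plates, covered and held at room temperature for 3 days, then each well scored for mortality.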

[2] = tested on: Green Peach Aphid (Myzus persicae, MYZUPE); assay: Bioassay on Green Peach Aphid (GPA), foliar spray on cabbage seedlings; settings: 72 h, 200 ppm foliar spray on cabbage seedlings, three days, Abbott corrected % control, read-out: GPA % Control (or Mortality) rating
Procedure: Example B: Bioassays on Green Peach Aphid (Myzus persicae, MYZUPE) (“GPA”)
Certain molecules disclosed in this document were tested against GPA using procedures described in the following example. In the reporting of the results, the “GPA Rating Table” was used (See Table Section).
Cabbage seedlings grown in 3-inch pots, with 2-3 small (3-5 cm) true leaves, were used as test substrate. The seedlings were infested with 20-50 GPA (wingless adult and nymph stages) one day prior to chemical application. Four pots with individual seedlings were used for each treatment. Test molecules (2 mg) were dissolved in 2 mL of acetone/methanol (1:1) solvent, forming stock solutions of 1000 ppm test molecule. The stock solutions were diluted 5× with 0.025% Tween 20 in water to obtain the solution at 200 ppm test molecule. A hand-held aspirator-type sprayer was used for spraying a solution to both sides of […] leaves until runoff. Reference plants (solvent check) were sprayed with the diluent only containing 20% by volume of acetone/methanol (1:1) solvent. Treated plants were held in a holding room for three days at approximately 25° C. and ambient relative humidity (RH) prior to grading. Evaluation was conducted by counting the number of live aphids per plant under a microscope. Percent Control was measured by using Abbott's correction formula (W. S. Abbott, “A Method of Computing the Effectiveness of an Insecticide” J. Econ. Entomol. 18 (1925), pp. 265-267) as follows. Corrected % Control=100*(X−Y)/X • where • X=No. of live aphids on solvent check plants and • Y=No. of live aphids on treated plants
The results are indicated in the table entitled “Table ABC: Biological Results” (See Table Section).

[3] = tested on: Cabbage Looper (Trichoplusia ni, TRIPNI); assay: Bioassay on Cabbage Looper (CL), 128-well diet tray assay; settings: 168 h, 50 μg/cm^2 on artificial diet, second instar larvae, five to seven days, 25° C., read-out: CL % Control (or Mortality) rating
Method in brief: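 Diet-tray test with one to five second-instar larvae per well on artificial diet treated with 50 μg/cm^2 compound (in 90:10 acetone-water), dried, eight wells per molecule. Held 25 °C, 14:10 light-dark for five to seven days; percent mortality averaged over the eight wells.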

[4] = tested on: Beet Armyworm (Spodoptera exigua, LAPHEG); assay: Bioassay on Beet Armyworm (BAW), 128-well diet tray assay; settings: 168 h, 50 μg/cm^2 on artificial diet, second instar larvae, five to seven days, 25° C., read-out: BAW % Control (or Mortality) rating
Method in brief: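 Second instar larvae, one to five per well, placed on artificial diet treated with 50 μg/cm^2 compound (in 90:10 acetone-water) and dried; eight wells per compound. Held at 25° C, 14:10 light-dark, five to seven days. Percent mortality recorded per well and averaged.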

| Structure (SMILES) | YFM % Control (or Mortality) rating [1] | mortality at 200 ppm [2] [%] | mortality at 50 µg/cm2 [3] [%] | mortality at 50 µg/cm2 [4] [%] |
| --- | --- | --- | --- | --- |
| Cc1cc(Cl)ccc1-n1nccc1NC(=O)Nc1ccc(-c2ncn(-c3ccc(OC(F)(F)F)cc3)n2)cc1 [F3, 1-(1-(4-Chloro-2-methylphenyl)-1H-pyrazol-5-yl)-3-(4-(1-(4-(trifluoromethoxy)phenyl)-1H-1,2,4-triazol-3-yl)phenyl)urea] | A (80-100) | 0 | 50 to 100 | 50 to 100 |
| O=C(Nc1ccc(-c2ncn(-c3ccc(OC(F)(F)F)cc3)n2)cc1)Nc1ccnn1-c1c(Cl)cccc1Cl [F4, 1-(1-(2,6-Dichlorophenyl)-1H-pyrazol-5-yl)-3-(4-(1-(4-(trifluoromethoxy)phenyl)-1H-1,2,4-triazol-3-yl)phenyl)urea] | A (80-100) | 0 to 80 | 50 to 100 | 50 to 100 |
| Cc1ccc(F)cc1-n1nccc1NC(=O)Nc1ccc(-c2ncn(-c3ccc(OC(F)(F)F)cc3)n2)cc1 [F5, 1-(1-(5-Fluoro-2-methylphenyl)-1H-pyrazol-5-yl)-3-(4-(1-(4-(trifluoromethoxy)phenyl)-1H-1,2,4-triazol-3-yl)phenyl)urea] | A (80-100) | 0 | 50 to 100 | 50 to 100 |
| CCc1ccccc1-n1nccc1NC(=O)Nc1ccc(-c2ncn(-c3ccc(OC(F)(F)F)cc3)n2)cc1 [F6, 1-(1-(2-Ethylphenyl)-1H-pyrazol-5-yl)-3-(4-(1-(4-(trifluoromethoxy)phenyl)-1H-1,2,4-triazol-3-yl)phenyl)urea] | A (80-100) | 0 | 50 to 100 | 50 to 100 |
| Cc1ccc(C)c(-n2nccc2NC(=O)Nc2ccc(-c3ncn(-c4ccc(OC(F)(F)F)cc4)n3)cc2)c1 [F7, 1-(1-(2,5-Dimethylphenyl)-1H-pyrazol-5-yl)-3-(4-(1-(4-(trifluoromethoxy)phenyl)-1H-1,2,4-triazol-3-yl)phenyl)urea] | A (80-100) | 0 to 80 | 50 to 100 | 50 to 100 |
| Cc1ccc(-n2nccc2NC(=O)Nc2ccc(-c3ncn(-c4ccc(OC(F)(F)F)cc4)n3)cc2)c(C)c1 [F9, 1-(1-(2,4-Dimethylphenyl)-1H-pyrazol-5-yl)-3-(4-(1-(4-(trifluoromethoxy)phenyl)-1H-1,2,4-triazol-3-yl)phenyl)urea] | A (80-100) | 0 to 80 | 50 to 100 | 50 to 100 |
| Cc1cc(C)c(-n2nccc2NC(=O)Nc2ccc(-c3ncn(-c4ccc(OC(F)(F)F)cc4)n3)cc2)c(C)c1 [F11, 1-(1-Mesityl-1H-pyrazol-5-yl)-3-(4-(1-(4-(trifluoromethoxy)phenyl)-1H-1,2,4-triazol-3-yl)phenyl)urea] | A (80-100) | 0 | 50 to 100 | 50 to 100 |
| O=C(Nc1ccc(-c2ncn(-c3ccc(OC(F)(F)F)cc3)n2)cc1)Nc1ccnn1-c1cc(Cl)ccc1Cl [F12, 1-(1-(2,5-Dichlorophenyl)-1H-pyrazol-5-yl)-3-(4-(1-(4-(trifluoromethoxy)phenyl)-1H-1,2,4-triazol-3-yl)phenyl)urea] | A (80-100) | 0 to 80 | 50 to 100 | 50 to 100 |
| COc1ccccc1-n1nccc1NC(=O)Nc1ccc(-c2ncn(-c3ccc(OC(F)(F)F)cc3)n2)cc1 [F13, 1-(1-(2-Methoxyphenyl)-1H-pyrazol-5-yl)-3-(4-(1-(4-(trifluoromethoxy)phenyl)-1H-1,2,4-triazol-3-yl)phenyl)urea] | A (80-100) | 0 | 50 to 100 | 50 to 100 |
| O=C(Nc1ccc(-c2ncn(-c3ccc(OC(F)(F)C(F)(F)F)cc3)n2)cc1)Nc1ccnn1-c1c(Cl)cccc1Cl [F14, 1-(1-(2,6-Dichlorophenyl)-1H-pyrazol-5-yl)-3-(4-(1-(4-(perfluoroethoxy)phenyl)-1H-1,2,4-triazol-3-yl)phenyl)urea] | A (80-100) | 0 to 80 | 50 to 100 | 50 to 100 |
| Cc1ccc(-n2nccc2NC(=O)Nc2ccc(-c3ncn(-c4ccc(OC(F)(F)C(F)(F)F)cc4)n3)cc2)c(C)c1 [F15, 1-(1-(2,4-Dimethylphenyl)-1H-pyrazol-5-yl)-3-(4-(1-(4-(perfluoroethoxy)phenyl)-1H-1,2,4-triazol-3-yl)phenyl)urea] | A (80-100) | 0 to 80 | 50 to 100 | 50 to 100 |
| Cc1ccc(F)cc1-n1nccc1NC(=O)Nc1ccc(-c2ncn(-c3ccc(OC(F)(F)C(F)(F)F)cc3)n2)cc1 [F16, 1-(1-(5-Fluoro-2-methylphenyl)-1H-pyrazol-5-yl)-3-(4-(1-(4-(perfluoroethoxy)phenyl)-1H-1,2,4-triazol-3-yl)phenyl)urea] | A (80-100) | 0 | 50 to 100 | 50 to 100 |
| Cc1ccc(C)c(-n2nccc2NC(=O)Nc2ccc(-c3ncn(-c4ccc(OC(F)(F)C(F)(F)F)cc4)n3)cc2)c1 [F17, 1-(1-(2,5-Dimethylphenyl)-1H-pyrazol-5-yl)-3-(4-(1-(4-(perfluoroethoxy)phenyl)-1H-1,2,4-triazol-3-yl)phenyl)urea] | A (80-100) | 0 to 80 | 50 to 100 | 50 to 100 |
| Cc1cc(C)c(-n2nccc2NC(=O)Nc2ccc(-c3ncn(-c4ccc(OC(F)(F)C(F)(F)F)cc4)n3)cc2)c(C)c1 [F18, 1-(1-Mesityl-1H-pyrazol-5-yl)-3-(4-(1-(4-(perfluoroethoxy)phenyl)-1H-1,2,4-triazol-3-yl)phenyl)urea] | A (80-100) | 0 to 80 | 50 to 100 | 50 to 100 |
| COc1ccccc1-n1nccc1NC(=O)Nc1ccc(-c2ncn(-c3ccc(OC(F)(F)C(F)(F)F)cc3)n2)cc1 [F19, 1-(1-(2-Methoxyphenyl)-1H-pyrazol-5-yl)-3-(4-(1-(4-(perfluoroethoxy)phenyl)-1H-1,2,4-triazol-3-yl)phenyl)urea] | A (80-100) | 0 to 80 | 50 to 100 | 50 to 100 |
